The source of these data is paper PMC5845537 (Frontiers in Pharmacology, 2018).

The test system of assay [1] is Long-Evans rats. Also noted: method as in Redrobe et al., 2012. Conditions: same subPCP model; ref Redrobe et al., 2012; cited from earlier work.
Assay [2] concerns Long-Evans rats. As to the kind of experiment: Attentional set-shifting task (AST) in subchronic PCP-treated rats. The note with it: for trials to criterion vs vehicle/vehicle or PCP/vehicle, EDR discrimination / trials to criterion vs PCP/vehicle, ED discrimination: subPCP-treated rats. The format is in vivo, rat. The method, then:
Subchronic PCP treatment: The subPCP administration regimen used in rats was conducted as described in ([Goetghebeur and Dias, 2009]), which is a reliable method for inducing deficits in our hands. Rats in the subPCP experiments received injections of 5 mg/mL PCP or vehicle (saline) s.c. at a 1 mL/kg injection volume twice per day for 7 days. […] The mouse subPCP regimen was conducted as described in [Pedersen et al. (2014)]. Briefly, mice received vehicle or PCP (1.3 mg/mL concentration, 10 mL/kg injection volume) s.c once per day for 14 days followed by a 7-day washout prior to experimentation.
Each test used male Long-Evans rats (Charles River, United States) aged 5–6 weeks when arriving at the research facility.
The attentional set-shifting test (AST) methods used here were adapted from [Goetghebeur and Dias (2009)]. The apparatus used for the AST test was a 44 cm × 64 cm × 30 cm black non-transparent Perspex test box, divided into 3 equal-sized areas (a starting area separated from a choice area subdivided in two). In the choice area, two 11 cm diameter terracotta pots were placed recessed into the box floor (with a 2 cm lip remaining above the floor) and separated by a divider. Odor (oils from The Body Shop®, United Kingdom) and media cues (not previously presented to the rats) were added to the pots.
Beginning on day 3 after the cessation of PCP administration, rats were subjected to a habituation period and trained to dig for a diet reward (half a Honey Loop cereal, Nestlé®) in terracotta pots filled with sawdust. On day 7 of PCP washout, rats were subjected to a single training session in which they were required to discriminate between two pots in order to find the reward. These discriminations were either based on differences in the digging media or the pot’s odor. On day 8 rats were presented with a series of increasingly difficult discriminations: a simple discrimination (SD), a compound discrimination (CD), two intra-dimensional shifts (ID1, ID2), an intra-dimensional shift reversal (ID2R), an extra-dimensional shift (ED) and an extra-dimensional shift reversal (EDR; see Table 1). Rats were required to meet a training criterion before moving on to a new discrimination type (for specifics, see Statistical Analysis, below).
The first trial of each discrimination stage was a discovery trial in which rats were allowed to dig in both pots, and to self-correct if digging in the wrong pot. Rats were only given one discovery trial. The discovery trial was included in the trials to criterion if the rat dug first in the correct pot, but not if the rat self-corrected an incorrect initial dig.
In the acute vortioxetine study, prior to the start of behavioral experiments on Day 8 of washout from PCP treatment, animals were randomly administered either 20% CD (Veh), […], or 64 mg/kg modafinil 30 min p.o. as described above (included as a positive control). Thus, the treatment groups in the acute vortioxetine study were as follows: Veh/Veh, PCP/Veh, PCP/1 mg/kg vortioxetine, PCP/3 mg/kg vortioxetine, PCP/10 mg/kg vortioxetine, or PCP/64 mg/kg modafinil.
Food dosing lasted from the first day of sub-chronic PCP administration and until the last day of the washout period (total of 14 days). After the end of the washout period where behavioral testing started, rats were fed with the same conditioned diet, however, under food restriction (∼11 g of diet per day per rat). In addition, some PCP-treated animals were fed vehicle food, but received acute injections of either 10 mg/kg vortioxetine, or 64 mg/kg modafinil, as described above. The treatment groups for the subchronic vortioxetine administration study were as follows: Veh/Veh, PCP/Veh, PCP/0.22 g/kg vortioxetine food, PCP/1.8 g/kg vortioxetine food, PCP/10 mg/kg vortioxetine 1 h s.c., or PCP/64 mg/kg 30 min p.o.
A third experiment was conducted to examine the effects of acute SERT inhibition or 5-HT3 receptor antagonism on subPCP-induced AST impairments. […]

The next assay relates to mice. Also noted: method as in Hashimoto et al. (2007). Conditions: ref Hashimoto et al. (2007), cited from earlier work; for effect on deficits in OR performance: repeated administration.
A further assay deals with SERT. Conditions: ref Pehrson et al., 2015; cited from earlier work.
Another assay has as its target T1, GABAB receptor (Rattus norvegicus, UniProt Q9Z0U4).
T1 construct: 12 μm coronal sections were collected from an area ranging from approximately +4.2 mm to +2.3 mm anterior to Bregma; from tissue; host or cells: rat brain cryosections, medial prefrontal cortex (prelimbic and infralimbic)
As to the kind of experiment: Ex vivo autoradiography, GABAB receptor saturation binding ([3H]CGP54626), medial prefrontal cortex. The note with it: rat medial prefrontal cortex; for GABAB receptors Bmax: [3H]CGP54626. An excerpt: (§1) Rats used in ex vivo autoradiography (EVA) experiments were randomly assigned to one of four experimental groups characterized by either subchronic saline or PCP (as described above) along with either vehicle or vortioxetine-infused food (1.8 g vortioxetine/kg food weight, as described in the attentional set shifting task). On day 8 of PCP withdrawal, rats were anesthetized using CO2 and killed by decapitation. Brains were quickly and gently removed from the skull, flash frozen on powdered dry ice, and stored at -20°C until sectioning. Later, 12 μm coronal sections were collected from an area ranging from approximately +4.2 mm to +2.3 mm anterior to Bregma ([Paxinos and Watson, 1998]) using a cryostat (MicroM, Germany) and were thaw-mounted on glass microscope slides. This range of coronal slices was chosen in order to study the prelimbic and infralimbic subregions of the medial prefrontal cortex, given the importance of these regions in tests of executive function such as the attentional set shifting task ([Ng et al., 2007]). After the tissue mounted on the microscope slides had dried thoroughly (in order to reduce damage from freezing), slides were packed into slide boxes with desiccator pellets, and stored at -20°C for use in EVA saturation binding and competition experiments.
(§2) Each of the EVA procedures used in this study are variations on a similar theme. On the day of an experiment, slide-boxes were defrosted under a constant stream of air at room temperature until the boxes were dry and equilibrated with the environment in terms of temperature. This step was undertaken in order to ensure brain tissue was not damaged by frosting due to a sudden change in humidity. Prior to any binding experiments, slides were preincubated in the appropriate preincubation buffer and dried at room temperature. Subsequently, tissue was incubated in an assay buffer containing a radioligand appropriate for the receptor of interest, then rinsed in assay buffer, and dried overnight in a vacuum desiccator. Specific information on the contents of the preincubation buffers, assay buffers and other assay conditions are listed in Table 2. Finally, slides were opposed to a tritium-sensitive phosphor screen (Fuji imaging plate, GE Healthcare, Pittsburgh, PA, United States) for 5 days before being read in a phosphorimager (Typhoon FLA7000, GE Healthcare). Analysis methods are listed below under statistical analyses.
(§3) In saturation binding experiments, the concentration of the relevant radioligand in the assay buffer was systematically varied in order to determine the KD and Bmax of the receptor in question. At each radioligand concentration, the non-specific binding was determined on a separate slide by including a high concentration of a non-radioactive competitor ligand in the assay buffer along with the radioligand. For GABAA receptor saturation binding experiments, [^3H]muscimol was examined in quarter log steps ranging from 0.56 to 300 nM. For GABAB receptor saturation binding experiments, [^3H]CGP54626 was examined in quarter log steps ranging from 0.17 to 100 nM.
For saturation binding studies, the primary dependent measures were pKD and Bmax. First, a standard curve was generated by measuring optical intensity from a slide of tritium standards (American Radiolabeled Chemicals, St. Louis, MO, United States) included in the slide cassette during exposure. A linear regression was performed to determine the relationship between intensity and bound radioactivity (measured on the standards in units of μCi/g). Next, average intensity values from the non-specific bound condition for each concentration of radioligand was subtracted from intensity values from the total bound condition to produce a measure of specific binding for each radioligand concentration. These optical intensity values were transformed into bound radioactivity (expressed as nCi/mg) measurements by interpolation from the standard curve noted above. […]

Assay [3] has as its system GABAA receptor. On the set-up: method as in Kim et al., 2000. The note with it: i.c.v. infusion 1 pmol/10 μL/h for 7 days; cortex and CA3 sub-region of the hippocampus; ref Kim et al., 2000; cited from earlier work.
Assay [4] concerns the target GABAA receptor. The assay can be described thus: Ex vivo autoradiography, GABAA receptor saturation binding ([3H]muscimol), medial prefrontal cortex. Also noted: species or system rat. Conditions: rat medial prefrontal cortex.
Excerpt: as §1, §2, §3
For saturation binding studies, the primary dependent measures were pKD and Bmax. […] A linear regression was performed to determine the relationship between intensity and bound radioactivity (measured on the standards in units of μCi/g). […] These optical intensity values were transformed into bound radioactivity (expressed as nCi/mg) measurements by interpolation from the standard curve noted above. […]

For a further assay, the target named is sigma 1 receptors. On the set-up: method as in Sanchez et al., 2003. The note with it: ref Sanchez et al., 2003; cited from earlier work.
The mark [5] stands for this setting: acute vortioxetine study, 64 mg/kg 30 min p.o., vs PCP/Veh.
The mark [6] stands for this setting: subchronic vortioxetine study, acute 64 mg/kg, p < 0.001.

Read-outs that look alike come from different tables or passages of the source. Marks after values point to notes of the source that are not given here.

T1 sequence (Q9Z0U4 17-960 limits assumed): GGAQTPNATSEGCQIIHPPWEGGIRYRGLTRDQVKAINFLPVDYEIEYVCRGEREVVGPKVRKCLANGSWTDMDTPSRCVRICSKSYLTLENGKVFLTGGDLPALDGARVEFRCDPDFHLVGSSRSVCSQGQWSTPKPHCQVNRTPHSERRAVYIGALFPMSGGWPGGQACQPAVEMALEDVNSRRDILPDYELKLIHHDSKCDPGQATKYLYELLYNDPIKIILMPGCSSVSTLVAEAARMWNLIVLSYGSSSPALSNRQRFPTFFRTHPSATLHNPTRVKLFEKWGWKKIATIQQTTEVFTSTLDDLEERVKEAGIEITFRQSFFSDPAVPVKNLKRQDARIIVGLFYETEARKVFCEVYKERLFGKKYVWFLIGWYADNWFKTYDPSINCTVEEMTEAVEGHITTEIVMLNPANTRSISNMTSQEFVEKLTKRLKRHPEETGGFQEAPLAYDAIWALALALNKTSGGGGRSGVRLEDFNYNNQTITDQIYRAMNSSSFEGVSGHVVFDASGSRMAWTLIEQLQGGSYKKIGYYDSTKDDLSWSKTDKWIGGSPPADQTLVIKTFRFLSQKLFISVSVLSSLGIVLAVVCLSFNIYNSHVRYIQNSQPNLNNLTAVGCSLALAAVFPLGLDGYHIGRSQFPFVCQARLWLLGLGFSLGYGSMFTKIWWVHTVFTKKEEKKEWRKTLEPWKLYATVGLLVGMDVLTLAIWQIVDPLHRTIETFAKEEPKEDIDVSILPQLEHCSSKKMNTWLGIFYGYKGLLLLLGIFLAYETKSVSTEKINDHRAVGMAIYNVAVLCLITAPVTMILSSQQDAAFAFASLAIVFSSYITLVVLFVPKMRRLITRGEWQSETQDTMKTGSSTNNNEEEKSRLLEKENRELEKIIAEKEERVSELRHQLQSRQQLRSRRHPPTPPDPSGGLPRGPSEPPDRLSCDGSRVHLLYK
T1 sequence (O88871 41-940 partner): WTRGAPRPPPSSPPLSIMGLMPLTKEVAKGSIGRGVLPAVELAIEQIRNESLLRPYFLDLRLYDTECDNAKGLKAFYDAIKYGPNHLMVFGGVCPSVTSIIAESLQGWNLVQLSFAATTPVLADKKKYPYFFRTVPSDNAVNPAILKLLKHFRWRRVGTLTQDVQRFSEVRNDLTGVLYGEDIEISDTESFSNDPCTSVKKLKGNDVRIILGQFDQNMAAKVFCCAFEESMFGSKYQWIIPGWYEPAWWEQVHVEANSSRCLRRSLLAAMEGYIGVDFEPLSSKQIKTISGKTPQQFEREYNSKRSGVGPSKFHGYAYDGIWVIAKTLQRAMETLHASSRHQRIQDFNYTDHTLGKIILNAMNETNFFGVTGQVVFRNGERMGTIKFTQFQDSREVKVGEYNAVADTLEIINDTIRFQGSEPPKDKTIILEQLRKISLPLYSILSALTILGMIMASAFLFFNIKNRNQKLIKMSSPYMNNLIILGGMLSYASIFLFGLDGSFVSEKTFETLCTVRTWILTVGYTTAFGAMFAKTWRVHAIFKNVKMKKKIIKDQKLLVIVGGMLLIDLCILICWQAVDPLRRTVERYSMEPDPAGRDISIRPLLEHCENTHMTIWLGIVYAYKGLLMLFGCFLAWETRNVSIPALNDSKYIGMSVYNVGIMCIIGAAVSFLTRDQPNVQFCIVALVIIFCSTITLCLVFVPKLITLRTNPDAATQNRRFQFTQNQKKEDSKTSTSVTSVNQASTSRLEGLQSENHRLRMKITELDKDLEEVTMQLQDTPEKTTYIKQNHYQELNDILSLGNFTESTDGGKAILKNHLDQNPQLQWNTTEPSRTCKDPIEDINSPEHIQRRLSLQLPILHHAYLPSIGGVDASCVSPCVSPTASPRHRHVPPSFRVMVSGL

In the case of `FC(F)c1ncn2c1Cn1ncnc1-c1cc(Br)ccc1-2` [RO4938581], in the assay with Long-Evans rats [1], the “attenuation of subPCP-induced impairment, ED discrimination of the AST” value is “significantly attenuated” and the “attenuation of subPCP-induced impairment, EDR discrimination of the AST” value is “significantly attenuated”.

For the molecule `Cc1nccn1CC1CCc2c(c3ccccc3n2C)C1=O` (centres unmarked) [ondansetron], in the assay with Long-Evans rats [2] (acute 1.6 mg/kg 1 h s.c.), the “trials to criterion vs vehicle/vehicle or PCP/vehicle, EDR discrimination” value is reported as “did not differ”. In addition, the “trials to criterion vs PCP/vehicle, ED discrimination” value (“trials to criterion vs PCP/vehicle” for short) with Long-Evans rats [2] (acute 1.6 mg/kg 1 h s.c., p < 0.05) is recorded as “significant reductions”.

Regarding `Fc1ccc([C@@H]2CCNC[C@H]2COc2ccc3c(c2)OCO3)cc1` [paroxetine], the “effect on deficits in OR performance” value in the assay on mice is “but not paroxetine reversed deficits”. Besides, the “effect on subPCP-induced impairments in OR performance” value in the assay on mice (single supra-pharmacological dose 10 mg/kg) is reported as “improved”.

Regarding `CCCN(CCC)CCc1ccc(OC)c(OCCc2ccccc2)c1` [NE-100], in the assay on mice (sigma1 receptor antagonist given with fluvoxamine), the “effect on fluvoxamine's reversal of OR deficits” value is on record as “blocked this effect”.

As to `NC(=O)C[S+]([O-])C(c1ccccc1)c1ccccc1` (centres unmarked) [modafinil, Modafinil], in the assay with Long-Evans rats [2] (setting [5]), the “reversal of subPCP-induced impairment, ED discrimination (trials to criterion)” value was “significantly reversed” and the “reversal of subPCP-induced impairment, EDR discrimination (trials to criterion)” value is given as “neither acute vortioxetine nor modafinil significantly reversed”. Further, in the assay on Long-Evans rats [2] (ondansetron/escitalopram study, 64 mg/kg 30 min p.o., p < 0.001), the “trials to criterion vs PCP/vehicle” value is “significant reductions”. Further, in the assay on Long-Evans rats [2] (ondansetron/escitalopram study, 64 mg/kg 30 min p.o., p < 0.05), the “trials to criterion vs vehicle/vehicle or PCP/vehicle, EDR discrimination” value is reported as “significantly fewer trials”. In the assay on Long-Evans rats [2] (setting [6]), the “AST performance in subPCP-treated rats, ED” value was “significantly improved performance” and the “AST performance in subPCP-treated rats, EDR” value is reported as “significantly improved performance”.

On to `COCCCC/C(=N\OCCN)c1ccc(C(F)(F)F)cc1` [fluvoxamine], for which the “SERT occupancy ED80” value in the assay with SERT is recorded as “≈ 1.8 mg/kg”. For the same molecule, the “effect on deficits in OR performance” value in the assay on mice is recorded as “reversed deficits”. Moreover, in the assay with mice (single supra-pharmacological dose 20 mg/kg), the “effect on subPCP-induced impairments in OR performance” value was “improved”.

For `C[C@H](NC[C@H](O)CP(=O)(O)CC1CCCCC1)c1ccc(Cl)c(Cl)c1` [[^3H]CGP54626], the “GABAB receptors Bmax” value at GABAB receptor (treatment group PCP/Veh) is 414 ± 33^a fmol/mg; on GABAB receptor (treatment group PCP/Vor), 342 ± 27^a,c fmol/mg; on GABAB receptor (treatment group Veh/Veh) it was 541 ± 38 fmol/mg; at GABAB receptor (treatment group Veh/Vor), 475 ± 34 fmol/mg. Moreover, the “GABAB receptors pKD ([3H]CGP54626)” value at GABAB receptor (treatment group PCP/Veh) is listed as 8.7 ± 0.08; at GABAB receptor (treatment group PCP/Vor) it was 8.7 ± 0.06; at GABAB receptor (treatment group Veh/Veh), 8.6 ± 0.04; on GABAB receptor (treatment group Veh/Vor), 8.6 ± 0.08.

On to `C[C@]12N[C@H](Cc3ccccc31)c1ccccc12` [MK-801], for which the “GABAA receptor binding ([3H]-muscimol, [3H]-flunitrazepam)” value in the assay on GABAA receptor [3] was “significant increase”.

Regarding `NCc1cc(=O)[nH]o1` [[^3H]muscimol], the “GABAA receptors pKD ([3H]muscimol)” value on GABAA receptor [4] (treatment group PCP/Veh) is 7.8 ± 0.03; at GABAA receptor [4] (treatment group PCP/Vor) it was 7.6 ± 0.03^a,b,c; at GABAA receptor [4] (treatment group Veh/Veh), 7.7 ± 0.03; on GABAA receptor [4] (treatment group Veh/Vor) it was 7.8 ± 0.06.

For orientation: Ki means a dissociation constant, usually derived from enzyme kinetics or from competition with a known ligand. On to `CN(C)CCC[C@@]1(c2ccc(F)cc2)OCc2cc(C#N)ccc21` [escitalopram], for which, in the assay on Long-Evans rats [2] (acute 0.5 mg/kg 1 h s.c.), the “trials to criterion vs vehicle/vehicle or PCP/vehicle, EDR discrimination” value is “did not differ”. Besides, in the assay with Long-Evans rats [2] (acute 0.5 mg/kg 1 h s.c., p < 0.001), the “trials to criterion vs PCP/vehicle” value was “significant reductions”. Besides, the Ki at sigma 1 receptors is approximately 0.1 µM.
